Measured values: patent publication US11053204B2, “Pyrimidinyloxy benzene derivatives as herbicides” (FMC Corporation, priority 2015, dated 2021)

Experiments:
Experiment in all cases: Test C postemergence, plant response rating
Assay type in all cases: in vivo
[1] = test system: buckwheat, wild (wild buckwheat, Polygonum convolvulus); settings: for Buckwheat, Wild plant response rating: scale 0 to 100 (0 no effect, 100 complete control)
Outline: (§1)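 After sowing in loam–sand blend or silt loam, pots were sprayed preemergence; separately grown 1- to 4-leaf plants were sprayed postemergence. Following 13 to 15 d under greenhouse conditions, injury was rated visually on a 0 to 100 scale.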

[2] = test system: surinam grass (Brachiaria decumbens); settings: for Surinam Grass plant response rating: 125 g ai/ha, scale 0 to 100 (0 no effect, 100 complete control)
Outline: as §1

[3] = test system: geranium, cutleaf (cutleaf geranium, Geranium dissectum); settings: for Geranium, Cutleaf plant response rating: scale 0 to 100 (0 no effect, 100 complete control)
Outline: as §1

[4] = test system: Canada thistle (Cirsium arvense); settings: for Canada Thistle plant response rating: scale 0 to 100 (0 no effect, 100 complete control)
Outline: as §1

[5] = test system: wild mustard (Sinapis arvensis); settings: for Mustard, Wild plant response rating: scale 0 to 100 (0 no effect, 100 complete control)
Outline: as §1

[6] = test system: field violet (Viola arvensis); settings: for Field Violet plant response rating: scale 0 to 100 (0 no effect, 100 complete control)
Outline: as §1

[7] = test system: field poppy (Papaver rhoeas); settings: for Field Poppy plant response rating: scale 0 to 100 (0 no effect, 100 complete control)
Outline: as §1

[8] = test system: wild poinsettia (Euphorbia heterophylla); settings: for Poinsettia, Wild plant response rating: scale 0 to 100 (0 no effect, 100 complete control)
Outline: as §1

[9] = test system: pigweed, palmer (palmer pigweed, Amaranthus palmeri); settings: for Pigweed, Palmer plant response rating: scale 0 to 100 (0 no effect, 100 complete control)
Outline: as §1

[10] = test system: windgrass (Apera spica-venti); settings: for Windgrass plant response rating: 125 g ai/ha, scale 0 to 100 (0 no effect, 100 complete control)
Outline: as §1

[11] = test system: speedwell (bird's-eye speedwell, Veronica persica); settings: for Speedwell plant response rating: scale 0 to 100 (0 no effect, 100 complete control)
Outline: as §1

[12] = test system: johnsongrass (Sorghum halepense); settings: for Johnsongrass plant response rating: scale 0 to 100 (0 no effect, 100 complete control)
Outline: as §1

[13] = test system: nightshade (eastern black nightshade, Solanum ptycanthum); settings: for Nightshade plant response rating: scale 0 to 100 (0 no effect, 100 complete control)
Outline: as §1

O=C(CCC(F)(F)C(F)(F)F)c1c(Br)cccc1Oc1ncc(Cl)cn1 [Compound 110]
Plant response rating, Buckwheat, Wild ([1]; 16 g ai/ha, scale of 0 to 100): 85
Plant response rating, Buckwheat, Wild ([1]; 31 g ai/ha, scale 0 to 100): 85
Buckwheat, Wild plant response rating ([1]; 62 g ai/ha): 95
Buckwheat, Wild plant response rating ([1]; 125 g ai/ha): 80
Plant response rating, Surinam Grass ([2]; 16 g ai/ha, scale of 0 to 100): 15
Plant response rating, Surinam Grass ([2]; 31 g ai/ha, scale 0 to 100): 20
Surinam Grass plant response rating [2]: 25
Plant response rating, Geranium, Cutleaf ([3]; 16 g ai/ha, scale of 0 to 100): 5
Plant response rating, Geranium, Cutleaf ([3]; 31 g ai/ha, scale 0 to 100): 30
Geranium, Cutleaf plant response rating ([3]; 62 g ai/ha): 40
Geranium, Cutleaf plant response rating ([3]; 125 g ai/ha): 60
Plant response rating, Canada Thistle ([4]; 16 g ai/ha, scale of 0 to 100): 65
Plant response rating, Canada Thistle ([4]; 31 g ai/ha, scale 0 to 100): 90
Canada Thistle plant response rating ([4]; 62 g ai/ha): 98
Canada Thistle plant response rating ([4]; 125 g ai/ha): 95
Plant response rating, Mustard, Wild ([5]; 16 g ai/ha, scale of 0 to 100): 90
Plant response rating, Mustard, Wild ([5]; 31 g ai/ha, scale 0 to 100): 90
Mustard, Wild plant response rating ([5]; 62 g ai/ha): 100
Mustard, Wild plant response rating ([5]; 125 g ai/ha): 100
Plant response rating, Field Violet ([6]; 16 g ai/ha, scale of 0 to 100): 80
Plant response rating, Field Violet ([6]; 31 g ai/ha, scale 0 to 100): 95
Field Violet plant response rating ([6]; 62 g ai/ha): 95
Field Violet plant response rating ([6]; 125 g ai/ha): 100
Plant response rating, Field Poppy ([7]; 16 g ai/ha, scale of 0 to 100): 85
Plant response rating, Field Poppy ([7]; 31 g ai/ha, scale 0 to 100): 100
Field Poppy plant response rating ([7]; 62 g ai/ha): 100
Field Poppy plant response rating ([7]; 125 g ai/ha): 100
Plant response rating, Poinsettia, Wild ([8]; 16 g ai/ha, scale of 0 to 100): 40
Plant response rating, Poinsettia, Wild ([8]; 31 g ai/ha, scale 0 to 100): 65
Poinsettia, Wild plant response rating ([8]; 62 g ai/ha): 80
Poinsettia, Wild plant response rating ([8]; 125 g ai/ha): 90
Plant response rating, Pigweed, Palmer ([9]; 16 g ai/ha, scale of 0 to 100): 75
Plant response rating, Pigweed, Palmer ([9]; 31 g ai/ha, scale 0 to 100): 95
Pigweed, Palmer plant response rating ([9]; 62 g ai/ha): 98
Pigweed, Palmer plant response rating ([9]; 125 g ai/ha): 95
Plant response rating, Windgrass ([10]; 16 g ai/ha, scale of 0 to 100): 20
Plant response rating, Windgrass ([10]; 31 g ai/ha, scale 0 to 100): 25
Windgrass plant response rating [10]: 30
Plant response rating, Speedwell ([11]; 16 g ai/ha, scale of 0 to 100): 60
Plant response rating, Speedwell ([11]; 31 g ai/ha, scale 0 to 100): 95
Speedwell plant response rating ([11]; 62 g ai/ha): 90
Speedwell plant response rating ([11]; 125 g ai/ha): 95
Plant response rating, Johnsongrass ([12]; 16 g ai/ha, scale of 0 to 100): 5
Plant response rating, Johnsongrass ([12]; 31 g ai/ha, scale 0 to 100): 10
Johnsongrass plant response rating ([12]; 62 g ai/ha): 10
Johnsongrass plant response rating ([12]; 125 g ai/ha): 15
Plant response rating, Nightshade ([13]; 16 g ai/ha, scale of 0 to 100): 75
Plant response rating, Nightshade ([13]; 31 g ai/ha, scale 0 to 100): 85
Nightshade plant response rating ([13]; 62 g ai/ha): 95
Nightshade plant response rating ([13]; 125 g ai/ha): 98

FC(F)(F)CCCCc1c(Cl)cccc1Oc1ncc(Cl)cn1 [Compound 137]
Plant response rating, Buckwheat, Wild ([1]; 16 g ai/ha, scale of 0 to 100): 70
Plant response rating, Buckwheat, Wild ([1]; 31 g ai/ha, scale 0 to 100): 75
Buckwheat, Wild plant response rating ([1]; 62 g ai/ha): 98
Buckwheat, Wild plant response rating ([1]; 125 g ai/ha): 90
Plant response rating, Surinam Grass ([2]; 16 g ai/ha, scale of 0 to 100): 5
Plant response rating, Surinam Grass ([2]; 31 g ai/ha, scale 0 to 100): 10
Surinam Grass plant response rating [2]: 20
Plant response rating, Geranium, Cutleaf ([3]; 16 g ai/ha, scale of 0 to 100): 10
Plant response rating, Geranium, Cutleaf ([3]; 31 g ai/ha, scale 0 to 100): 25
Geranium, Cutleaf plant response rating ([3]; 62 g ai/ha): 30
Geranium, Cutleaf plant response rating ([3]; 125 g ai/ha): 35
Plant response rating, Canada Thistle ([4]; 16 g ai/ha, scale of 0 to 100): 75
Plant response rating, Canada Thistle ([4]; 31 g ai/ha, scale 0 to 100): 85
Canada Thistle plant response rating ([4]; 62 g ai/ha): 98
Canada Thistle plant response rating ([4]; 125 g ai/ha): 100
Plant response rating, Mustard, Wild ([5]; 16 g ai/ha, scale of 0 to 100): 100
Plant response rating, Mustard, Wild ([5]; 31 g ai/ha, scale 0 to 100): 85
Mustard, Wild plant response rating ([5]; 62 g ai/ha): 100
Mustard, Wild plant response rating ([5]; 125 g ai/ha): 100
Plant response rating, Field Violet ([6]; 16 g ai/ha, scale of 0 to 100): 65
Plant response rating, Field Violet ([6]; 31 g ai/ha, scale 0 to 100): 70
Field Violet plant response rating ([6]; 62 g ai/ha): 85
Field Violet plant response rating ([6]; 125 g ai/ha): 85
Plant response rating, Field Poppy ([7]; 16 g ai/ha, scale of 0 to 100): 85
Plant response rating, Field Poppy ([7]; 31 g ai/ha, scale 0 to 100): 95
Field Poppy plant response rating ([7]; 62 g ai/ha): 100
Field Poppy plant response rating ([7]; 125 g ai/ha): 100
Plant response rating, Poinsettia, Wild ([8]; 16 g ai/ha, scale of 0 to 100): 15
Plant response rating, Poinsettia, Wild ([8]; 31 g ai/ha, scale 0 to 100): 65
Poinsettia, Wild plant response rating ([8]; 62 g ai/ha): 65
Poinsettia, Wild plant response rating ([8]; 125 g ai/ha): 75
Plant response rating, Pigweed, Palmer ([9]; 16 g ai/ha, scale of 0 to 100): 20
Plant response rating, Pigweed, Palmer ([9]; 31 g ai/ha, scale 0 to 100): 45
Pigweed, Palmer plant response rating ([9]; 62 g ai/ha): 50
Pigweed, Palmer plant response rating ([9]; 125 g ai/ha): 70
Plant response rating, Windgrass ([10]; 16 g ai/ha, scale of 0 to 100): 10
Plant response rating, Windgrass ([10]; 31 g ai/ha, scale 0 to 100): 10
Windgrass plant response rating [10]: 45
Plant response rating, Speedwell ([11]; 16 g ai/ha, scale of 0 to 100): 75
Plant response rating, Speedwell ([11]; 31 g ai/ha, scale 0 to 100): 80
Speedwell plant response rating ([11]; 62 g ai/ha): 100
Speedwell plant response rating ([11]; 125 g ai/ha): 100
Plant response rating, Johnsongrass ([12]; 16 g ai/ha, scale of 0 to 100): 5
Plant response rating, Johnsongrass ([12]; 31 g ai/ha, scale 0 to 100): 10
Johnsongrass plant response rating ([12]; 62 g ai/ha): 10
Johnsongrass plant response rating ([12]; 125 g ai/ha): 25
Plant response rating, Nightshade ([13]; 16 g ai/ha, scale of 0 to 100): 60
Plant response rating, Nightshade ([13]; 31 g ai/ha, scale 0 to 100): 80
Nightshade plant response rating ([13]; 62 g ai/ha): 90
Nightshade plant response rating ([13]; 125 g ai/ha): 90
